# Measured values: publication PMC8330742, “New benzothieno[2,3-c]pyridines as non-steroidal CYP17 inhibitors: design, synthesis, anticancer screening, apoptosis induction, and in silico ADME profile studies” (Journal of Enzyme Inhibition and Medicinal Chemistry, 2021)
# Experiments:
# LOX IMVI = experiment: NCI-60 SRB screen; format: cell-based, human; conditions: Homo sapiens, single dose 10^−5 M, read-out: Growth inhibition (%)
# COLO 205 = experiment: NCI-60 SRB screen; format: cell-based, human; conditions: Homo sapiens; COLO 205; single dose 10^−5 M; read-out: Growth inhibition (%)
# UACC-62 = experiment: NCI-60 SRB screen; format: cell-based, human; conditions: Homo sapiens; UACC-62; single dose 10^−5 M; read-out: Growth inhibition (%)
# SK-MEL-2 = experiment: NCI-60 SRB screen; format: cell-based, human; conditions: Homo sapiens; SK-MEL-2; single dose 10^−5 M; read-out: Growth inhibition (%)
# CAKI-1 = experiment: NCI-60 SRB screen; format: cell-based, human; conditions: Homo sapiens; CAKI-1; single dose 10^−5 M; read-out: Growth inhibition (%)
# K-562 = experiment: NCI-60 SRB screen; format: cell-based, human; conditions: Homo sapiens, K562; K-562; single dose 10^−5 M; read-out: Growth inhibition (%)
# SK-MEL-28 = experiment: NCI-60 SRB screen; format: cell-based; conditions: Homo sapiens; SK-MEL-28; single dose 10^−5 M; read-out: Growth inhibition (%)
# HOP-62 = experiment: NCI-60 SRB screen; format: cell-based, human; conditions: Homo sapiens; HOP-62; single dose 10^−5 M; read-out: Growth inhibition (%)
# SK-OV-3 = experiment: NCI-60 SRB screen; format: cell-based, human; conditions: Homo sapiens; SK-OV-3; single dose 10^−5 M; read-out: Growth inhibition (%)
# HCT-116 = experiment: NCI-60 SRB screen; format: cell-based, human; conditions: Homo sapiens; HCT-116; single dose 10^−5 M; read-out: Growth inhibition (%)
# ACHN = experiment: NCI-60 SRB screen; format: cell-based; conditions: Homo sapiens, single dose 10^−5 M, read-out: Growth inhibition (%)
# SN12C = experiment: NCI-60 SRB screen; format: cell-based, human; conditions: Homo sapiens, SN12C; SN 12 C; single dose 10^−5 M; read-out: Growth inhibition (%)
# OVCAR-8 = experiment: NCI-60 SRB screen; format: cell-based, human; conditions: Homo sapiens; OVCAR-8; single dose 10^−5 M; read-out: Growth inhibition (%)
# A549/ATCC = experiment: NCI-60 SRB screen; format: cell-based, human; conditions: Homo sapiens, single dose 10^−5 M, read-out: Growth inhibition (%)
# HL-60(TB) = experiment: NCI-60 SRB screen; format: cell-based, human; conditions: Homo sapiens; HL-60 (TB); single dose 10^−5 M; read-out: Growth inhibition (%)
# 786-0 = experiment: NCI-60 SRB screen; format: cell-based; conditions: Homo sapiens; 786-0; single dose 10^−5 M; read-out: Growth inhibition (%)
# NCI-H460 = experiment: NCI-60 SRB screen; format: cell-based, human; conditions: Homo sapiens; NCI-H460; single dose 10^−5 M; read-out: Growth inhibition (%)
# KM12 = experiment: NCI-60 SRB screen; format: cell-based, human; conditions: Homo sapiens; KM12; single dose 10^−5 M; read-out: Growth inhibition (%)
# UO-31 = experiment: NCI-60 SRB screen; format: cell-based, human; conditions: Homo sapiens; UO-31; single dose 10^−5 M; read-out: Growth inhibition (%)
# EKVX = experiment: NCI-60 SRB screen; format: cell-based, human; conditions: Homo sapiens, single dose 10^−5 M, read-out: Growth inhibition (%)
# SK-MEL-5 = experiment: NCI-60 SRB screen; format: cell-based, human; conditions: Homo sapiens; SK-MEL-5; single dose 10^−5 M; read-out: Growth inhibition (%)
# NCI-H322M = experiment: NCI-60 SRB screen; format: cell-based, human; conditions: Homo sapiens, single dose 10^−5 M, read-out: Growth inhibition (%)
# TK-10 = experiment: NCI-60 SRB screen; format: cell-based, human; conditions: Homo sapiens; TK-10; single dose 10^−5 M; read-out: Growth inhibition (%)
# SF-295 = experiment: NCI-60 SRB screen; format: cell-based, human; conditions: Homo sapiens; SF-295; single dose 10^−5 M; read-out: Growth inhibition (%)
# CCRF-CEM = experiment: NCI-60 SRB screen; format: cell-based; conditions: Homo sapiens, single dose 10^−5 M, read-out: Growth inhibition (%)
# SF-268 = experiment: NCI-60 SRB screen; format: cell-based, human; conditions: Homo sapiens; SF-268; single dose 10^−5 M; read-out: Growth inhibition (%)
# SW-620 = experiment: NCI-60 SRB screen; format: cell-based; conditions: Homo sapiens; SW-620; single dose 10^−5 M; read-out: Growth inhibition (%)
# NCI-H226 = experiment: NCI-60 SRB screen; format: cell-based, human; conditions: Homo sapiens; NCI-H226; single dose 10^−5 M; read-out: Growth inhibition (%)
# [1] = tested on: panel of 60 cancer cell lines; experiment: NCI-60 SRB screen, mean or range over the panel; format: cell-based, human; conditions: Homo sapiens; mean over the cell lines; single dose 10^−5 M; read-out: Mean growth inhibition (%)
# NCI/ADR-RES = experiment: NCI-60 SRB screen; format: cell-based, human; conditions: Homo sapiens, single dose 10^−5 M, read-out: Growth inhibition (%)
# HT-29 = experiment: NCI-60 SRB screen; format: cell-based; conditions: Homo sapiens; HT-29; single dose 10^−5 M; read-out: Growth inhibition (%)
# SR = experiment: NCI-60 SRB screen; format: cell-based; conditions: Homo sapiens, single dose 10^−5 M, read-out: Growth inhibition (%)
# NCI-H522 = experiment: NCI-60 SRB screen; format: cell-based, human; conditions: Homo sapiens; NCI-H522; single dose 10^−5 M; read-out: Growth inhibition (%)
# IGROV1 = experiment: NCI-60 SRB screen; format: cell-based, human; conditions: Homo sapiens, IGROV-1; IGROV1; single dose 10^−5 M; read-out: Growth inhibition (%)
# MOLT-4 = experiment: NCI-60 SRB screen; format: cell-based; conditions: Homo sapiens; MOLT-4; single dose 10^−5 M; read-out: Growth inhibition (%)
# UACC-257 = experiment: NCI-60 SRB screen; format: cell-based, human; conditions: Homo sapiens, UACC-257; UACC-275 (so in the source); single dose 10^−5 M; read-out: Growth inhibition (%)
# OVCAR-4 = experiment: NCI-60 SRB screen; format: cell-based, human; conditions: Homo sapiens; OVCAR-4; single dose 10^−5 M; read-out: Growth inhibition (%)
# NCI-H23 = experiment: NCI-60 SRB screen; format: cell-based, human; conditions: Homo sapiens; NCI-H23; single dose 10^−5 M; read-out: Growth inhibition (%)
# OVCAR-3 = experiment: NCI-60 SRB screen; format: cell-based, human; conditions: Homo sapiens; OVCAR-3; single dose 10^−5 M; read-out: Growth inhibition (%)
# HCT-15 = experiment: NCI-60 SRB screen; format: cell-based, human; conditions: Homo sapiens; HCT-15; single dose 10^−5 M; read-out: Growth inhibition (%)
# HOP-92 = experiment: NCI-60 SRB screen; format: cell-based, human; conditions: Homo sapiens; HOP-92; single dose 10^−5 M; read-out: Growth inhibition (%)
# MALME-3M = experiment: NCI-60 SRB screen; format: cell-based, human; conditions: Homo sapiens, single dose 10^−5 M, read-out: Growth inhibition (%)
# M14 = experiment: NCI-60 SRB screen; format: cell-based, human; conditions: Homo sapiens; M14; single dose 10^−5 M; read-out: Growth inhibition (%)
# MDA-MB-435 = experiment: NCI-60 SRB screen; format: cell-based; conditions: Homo sapiens, MDA-MB-435, read-out: Growth inhibition (%)
# HCC-2998 = experiment: NCI-60 SRB screen; format: cell-based, human; conditions: Homo sapiens; HCC-2998; single dose 10^−5 M; read-out: Growth inhibition (%)
structure (smiles),measurement,setting,value
"COc1ccc(C2NC(=O)C(Cl)c3c2sc2c(F)cccc32)cc1 (stereo not drawn) [Compound 4b, 4-Chloro-8-fluoro-1-(4-methoxyphenyl)-1,2-dihydro[1]benzothieno[2,3-c] pyridine-3(4H)-one]",inhibition at 10 µM,LOX IMVI,6.46%
same,inhibition at 10 µM,COLO 205,-20.5%
same,inhibition at 10 µM,UACC-62,8.74%
same,inhibition at 10 µM,SK-MEL-2,-18.3%
same,inhibition at 10 µM,CAKI-1,17.7%
same,inhibition at 10 µM,K-562,31.3%
same,inhibition at 10 µM,SK-MEL-28,-0.07%
same,inhibition at 10 µM,HOP-62,17.2%
same,inhibition at 10 µM,SK-OV-3,-2.04%
same,inhibition at 10 µM,HCT-116,1.62%
same,inhibition at 10 µM,ACHN,-3.2%
same,inhibition at 10 µM,SN12C,3.66%
same,inhibition at 10 µM,OVCAR-8,2.95%
same,inhibition at 10 µM,A549/ATCC,55.5%
same,inhibition at 10 µM,HL-60(TB),-5.26%
same,inhibition at 10 µM,786-0,-0.46%
same,inhibition at 10 µM,NCI-H460,31.4%
same,inhibition at 10 µM,KM12,7.6%
same,inhibition at 10 µM,UO-31,71.7%
same,inhibition at 10 µM,EKVX,23%
same,inhibition at 10 µM,SK-MEL-5,-0.07%
same,inhibition at 10 µM,NCI-H322M,22%
same,inhibition at 10 µM,TK-10,-38.1%
same,inhibition at 10 µM,SF-295,1.82%
same,inhibition at 10 µM,CCRF-CEM,-0.42%
same,inhibition at 10 µM,SF-268,14.3%
same,inhibition at 10 µM,SW-620,6.49%
same,inhibition at 10 µM,NCI-H226,7.14%
same,inhibition at 10 µM,[1],8.66%
same,inhibition at 10 µM,NCI/ADR-RES,9.18%
same,inhibition at 10 µM,HT-29,-6.98%
same,inhibition at 10 µM,SR,39.3%
same,inhibition at 10 µM,NCI-H522,21.7%
same,inhibition at 10 µM,IGROV1,4.86%
same,inhibition at 10 µM,MOLT-4,7.88%
same,inhibition at 10 µM,UACC-257,-6.58%
same,inhibition at 10 µM,OVCAR-4,7.51%
same,inhibition at 10 µM,NCI-H23,6.41%
same,inhibition at 10 µM,OVCAR-3,0.61%
same,inhibition at 10 µM,HCT-15,14.2%
same,inhibition at 10 µM,HOP-92,16.4%
same,inhibition at 10 µM,MALME-3M,10.8%
same,inhibition at 10 µM,M14,3.86%
same,inhibition at 10 µM,MDA-MB-435,33.7%
same,inhibition at 10 µM,HCC-2998,-6.39%
